Source: patent US6893830B1, “Method of screening oxysterol activation of LXRα” (The Board of Regents of the University of Texas System, priority 1996, dated 2005)

What was measured:
[1] = system: other known nuclear receptors (RXRα, RARα, TRβ, VDR, PPARα, FXR, ER, GR, usp/EcR); experiment: Receptor-specific transactivation: cotransfection of other nuclear receptors with their cognate response element reporters in CV-1 cells; format: cell-based, human; conditions: 6 μM 22(R)-hydroxycholesterol
Method: (§1) TK-DR-4-LUC; human vitamin D receptor (VDR)^24, TK-DR^3-LUC; human peroxisome proliferator-activated receptor-α (PPARα)^25, TK-PPREx3-LUC; human farnesol activated receptor (FXR)^11, ΔMTV-EcREx5-LUC; human estrogen receptor (ER)^26, ΔMTV-ERE-LUC; human glucocorticoid receptor (GR)^27, MTV-LUC; Drosophila ecdysone receptor (usp/EcR)^15, ΔMTV-EcREx5-LUC. Cells were treated with ETOH or 6 μM 22(R)-hydroxycholesterol. […] FIG. 3(A)-3(D) Activation of LXRα by 22(R)-hydroxycholesterol in Drosophila (SL-2) cells. […] CV-1 cells were cotransfected with TK-LXREx3-LUC reporter plasmid and expression plasmids containing the indicated receptor combinations, and then treated with the indicated ligands. […] CV-1 cells cotransfected with the LXRα expression plasmid and TK-LXREx3-LUC reporter were treated with 9-cis RA, 22(R)-hydroxycholesterol, or both, at the indicated concentrations.
(§2) In FIG. 3B. Drosophila SL-2 cells were transfected and assayed as previously described^5 in 6-well plates with […] A5C-hLXRα or A5C-hLXRα, 0.5 mg ADH-LXREx2-LUC, 0.2 mg A5C-βGAL and […] PGEM4 carrier DNA per well.

[2] = target: T1, TR-LXR chimera (TRβ N-terminus and DNA binding domain fused to ligand binding domain of LXRα) (Homo sapiens, UniProt Q13133); experiment: Chimeric receptor transactivation in CV-1 cells, TR-LXR chimera; format: cell-based; conditions: TK-LXREx3-LUC
T1 construct: expressed in transfected cells; host or cells: CV-1 monkey kidney cells
T1 sequence (Q13133 164-447): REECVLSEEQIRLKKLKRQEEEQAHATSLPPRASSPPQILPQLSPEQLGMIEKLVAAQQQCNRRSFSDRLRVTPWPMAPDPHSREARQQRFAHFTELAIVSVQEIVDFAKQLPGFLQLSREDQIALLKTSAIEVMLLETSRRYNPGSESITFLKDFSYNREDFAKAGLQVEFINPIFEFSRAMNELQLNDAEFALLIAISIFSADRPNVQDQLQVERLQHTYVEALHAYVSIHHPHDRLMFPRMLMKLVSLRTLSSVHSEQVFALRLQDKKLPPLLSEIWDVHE
Method: Cells were treated with ETOH or 6 μM 22(R)-hydroxycholesterol. […] CV-1 cells were cotransfected with TK-LXREx3-LUC reporter plasmid and expression plasmids containing the indicated receptor combinations, and then treated with the indicated ligands. […] CV-1 cells cotransfected with the LXRα expression plasmid and TK-LXREx3-LUC reporter were treated with 9-cis RA, 22(R)-hydroxycholesterol, or both, at the indicated concentrations.

RXR/LXR heterodimer = RXR/LXR heterodimer activation, dose response in CV-1 cells with TK-LXREx3-LUC; format: cell-based, human; conditions: LXRα expression plasmid, dose-dependent
Method: as §1, §2
A subset of receptors that function as RXR heterodimers have the unique ability to be activated by their own ligand, the RXR ligand (i.e., 9-cis retinoic acid), or both ligands together^11,17. […]

LXRα = target: T2, LXRα (Homo sapiens, UniProt Q13133); experiment: Activation of LXRα in Drosophila SL-2 cells (LXR responsive reporter); format: cell-based; parameters: expressed in transfected cells; host or cells: Drosophila SL-2 cells; conditions: 10 μM
T2 sequence (Q13133 1-447): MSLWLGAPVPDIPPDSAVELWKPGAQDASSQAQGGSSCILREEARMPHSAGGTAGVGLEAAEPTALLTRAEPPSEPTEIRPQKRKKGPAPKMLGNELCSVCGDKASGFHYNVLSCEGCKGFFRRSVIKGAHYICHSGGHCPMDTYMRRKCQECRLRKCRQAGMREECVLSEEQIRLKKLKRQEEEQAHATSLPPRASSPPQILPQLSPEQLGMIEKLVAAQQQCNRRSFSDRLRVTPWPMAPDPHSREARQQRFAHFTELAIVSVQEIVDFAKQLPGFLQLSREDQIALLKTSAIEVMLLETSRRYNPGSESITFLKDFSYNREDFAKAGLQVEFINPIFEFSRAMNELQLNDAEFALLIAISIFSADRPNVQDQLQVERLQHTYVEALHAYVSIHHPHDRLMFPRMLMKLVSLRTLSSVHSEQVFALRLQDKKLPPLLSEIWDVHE
T2 sequence (P19793 1-462 partner): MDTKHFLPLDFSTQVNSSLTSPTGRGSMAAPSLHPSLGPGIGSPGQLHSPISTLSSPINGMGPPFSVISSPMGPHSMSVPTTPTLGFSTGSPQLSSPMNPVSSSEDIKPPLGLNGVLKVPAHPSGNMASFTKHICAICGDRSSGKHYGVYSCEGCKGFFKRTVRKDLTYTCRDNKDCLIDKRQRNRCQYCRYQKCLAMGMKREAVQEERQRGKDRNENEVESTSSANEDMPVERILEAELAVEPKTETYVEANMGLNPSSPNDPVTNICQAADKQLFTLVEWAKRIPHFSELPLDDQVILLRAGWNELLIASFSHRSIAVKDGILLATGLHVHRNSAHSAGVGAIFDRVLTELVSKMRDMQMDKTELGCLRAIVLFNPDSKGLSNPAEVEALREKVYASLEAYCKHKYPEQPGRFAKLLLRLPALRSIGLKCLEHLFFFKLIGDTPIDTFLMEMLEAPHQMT
Method: as §1, §2
The insect cell line, SL-2, which lacks mammalian nuclear receptors and is deficient in the metabolic pathways for cholesterol and bile acid synthesis^14, was used as a transfection host in these experiments. […]

CC(C)CC[C@@H](O)[C@@H](C)[C@H]1CC[C@H]2[C@@H]3CC=C4C[C@@H](O)CC[C@]4(C)[C@H]3CC[C@]12C [22(R)-hydroxycholesterol]
cross-reactivity with other known nuclear receptors (transactivation) [1]: no cross-reactivity
responsiveness of TR-LXR chimera [2]: responded
maximal induction (RXR/LXR heterodimer): 20 fold
induction, LXRα alone transfected (LXRα; LXRα alone): 6 fold
induction, RXRα cotransfected with LXRα (LXRα; RXRα plus LXRα): 26 fold
